From patent US20130225523A1, “GLYCODENDRIMERS OF POLYPROPYLETHERIMINE” (priority 2010, published 2013)

Test system: pro-inflammatory cytokines such as IL-6, IL-1 beta, TNF-alpha and MIP-1 beta
Assay: Effect of unconjugated components on pro-inflammatory cytokines
Assay type: cell-based
Settings: even at high doses

N[C@H]1C(O)O[C@H](CO)[C@@H](O)[C@@H]1O (stereo partly shown) [glucosamine]
effect on pro-inflammatory cytokines such as IL-6, IL-1 beta, TNF-alpha and MIP-1 beta: no effect
